Laboratory results: US20070179161A1, “Pyrazolopyrimidine compounds and their use in medicine” (VERNALIS (CAMBRIDGE) LIMITED., priority 2003, published 2007)
Read-outs that look alike come from different tables or passages of the source.

Legend:
Assay type in all cases: biochemical
[1] = molecular target: CDK-2 enzyme, complexed with cyclin A (Homo sapiens, UniProt P24941); experiment: CDK2 enzyme inhibition assay (33P phosphorylation of peptide […], filter plate); settings: CDK-2/cyclin A, 0.1 mM ATP, 40 min at 30° C.
Description: (§1) The assay mixture containing the inhibitor and CDK-2 enzyme, complexed with cyclin A (0.4 U/ml) was mixed together in a microtiter plate in a final volume of 50 μl and incubated for 40 min at 30° C. The assay mixture contained 0.1 mM unlabeled ATP, 0.01 μCi/μl ^33P-γ-ATP, 0.03 mM peptide, 0.1 mg/ml BSA, 7.5 mM magnesium acetate, 50 mM HEPES-NaOH, pH 7.5. The reaction was stopped by adding 50 μl of 50 mM phosphoric acid. 90 μl of the mixture were transferred to a pre-wetted 96-well Multiscreen MAPHNOB filtration plate (Millipore) and filtered on a vacuum manifold. […] The filtration plate was dried for 10 min at 65° C., scintillant added and phosphorylated peptide quantified in a scintillation counter (Trilux, PerkinElmer)
HEPES is N-[2-Hydroxyethyl]piperazine-N′-[2-ethanesulfonic acid] BSA is bovine serum albumin.

[2] = molecular target: T1, GST-Chk1 enzyme (Homo sapiens, UniProt O14757); experiment: Chk1 kinase inhibition assay (33P phosphorylation of Chktide, filter plate); settings: 0.01 mM ATP, 11 nM GST-Chk1, 40 minutes at 30° C.
T1 sequence (O14757 1-476): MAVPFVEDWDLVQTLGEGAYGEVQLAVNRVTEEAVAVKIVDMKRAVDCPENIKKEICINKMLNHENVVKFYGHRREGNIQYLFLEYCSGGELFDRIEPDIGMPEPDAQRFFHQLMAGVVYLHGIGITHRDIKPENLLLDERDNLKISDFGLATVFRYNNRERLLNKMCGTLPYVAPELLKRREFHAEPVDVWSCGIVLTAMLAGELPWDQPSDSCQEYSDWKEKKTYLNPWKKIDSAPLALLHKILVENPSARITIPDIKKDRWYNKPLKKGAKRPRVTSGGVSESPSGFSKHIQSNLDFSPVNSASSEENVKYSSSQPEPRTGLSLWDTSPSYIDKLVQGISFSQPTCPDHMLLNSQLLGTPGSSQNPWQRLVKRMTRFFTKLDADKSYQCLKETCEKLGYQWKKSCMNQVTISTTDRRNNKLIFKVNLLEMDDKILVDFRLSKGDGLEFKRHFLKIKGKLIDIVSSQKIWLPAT
Description: The assay mixture containing the inhibitor and Chk1 enzyme was mixed together in a microtiter plate in a final volume of 50 μl and incubated for 40 minutes at 30° C.
The reaction was stopped by adding 50 μl of 50 mM phosphoric acid. 90 μl of the mixture was transferred to a pre-wetted 96-well Multiscreen MAPHNOB filtration plate (Millipore) and filtered on a vacuum manifold. […] The filtration plate was dried for 10 min at 65° C., scintillant added and phosphorylated peptide quantified in a scintillation counter (Trilux, PerkinElmer)

[3] = molecular target: T2, PDK1 enzyme (Homo sapiens, UniProt O15530); experiment: PDK1 kinase inhibition assay (33P phosphorylation of synthetic peptide, filter plate); settings: 0.01 mM ATP, 60 min at 30° C.
T2 sequence (O15530 1-556): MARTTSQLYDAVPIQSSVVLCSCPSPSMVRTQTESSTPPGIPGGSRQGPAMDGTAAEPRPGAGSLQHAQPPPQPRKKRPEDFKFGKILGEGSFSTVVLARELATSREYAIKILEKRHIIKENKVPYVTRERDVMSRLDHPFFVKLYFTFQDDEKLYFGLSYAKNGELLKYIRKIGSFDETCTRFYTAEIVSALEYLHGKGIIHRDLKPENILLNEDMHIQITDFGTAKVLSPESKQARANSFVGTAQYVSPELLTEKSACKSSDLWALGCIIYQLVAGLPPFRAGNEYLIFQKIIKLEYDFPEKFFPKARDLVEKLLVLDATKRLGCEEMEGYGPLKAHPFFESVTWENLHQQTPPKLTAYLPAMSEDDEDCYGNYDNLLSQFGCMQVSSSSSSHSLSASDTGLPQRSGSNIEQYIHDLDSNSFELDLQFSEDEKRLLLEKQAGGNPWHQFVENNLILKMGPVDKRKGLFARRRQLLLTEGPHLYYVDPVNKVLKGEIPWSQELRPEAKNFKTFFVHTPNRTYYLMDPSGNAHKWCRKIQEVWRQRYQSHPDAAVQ
Description: as §1, with “and PDK1 enzyme” for “and CDK-2 enzyme, complexed with cyclin A (0.4 U/ml)”, “for 60” for “for 40”, “contained 0.01” for “contained 0.1”, “^33P-γ-ATP, 0.075” for “^33P-γ-ATP, 0.03”, “acetate, 0.05M Tris.HCl,” for “acetate, 50 mM HEPES-NaOH,”, “pH 7.5, 0.5% 2-mercaptoethanol.” for “pH 7.5.”

| IC50 [1] [µM] | IC50 ([3]; read-out: PDK1 IC50) [µM] | Compound | other results |
| --- | --- | --- | --- |
| 0.815 | 5 | CC(C)c1cnn2c(Nc3ccc(S(=O)(=O)N(C)C)cc3)cc(N[C@H]3CC[C@H](N(C)C)CC3)nc12 [Example 162] | IC50 ([2]; read-out: Chk1 IC50): 12 µM |
| 0.24 | – | CN(C)S(=O)(=O)c1ccc(Nc2cc(O[C@@H]3CCNC3)nc3c(Cl)cnn23)cc1 [Example 195] | IC50 ([2]; read-out: Chk1 IC50): 7.79 µM |
| 1.8 | > 200 | CC(C)c1cnn2c(Nc3ccc(S(=O)(=O)N(C)C)cc3)cc(CN3CCC(O)CC3)nc12 [Example 170] | – |
| 11.2 | – | CN(C)S(=O)(=O)c1ccc(Nc2cc(N[C@H]3CC[C@@H](N)CC3)nc3c(S(C)(=O)=O)cnn23)cc1 [Example 200] | – |
| – | 0.66 | N[C@H]1CC[C@@H](Nc2cc(Nc3ccc(S(=O)(=O)Nc4nccs4)cc3)n3ncc(Br)c3n2)CC1 [Example 177] | – |
| 0.089 | – | O=S(=O)(c1ccc(Nc2cc(Cl)nc3c(Cl)cnn23)cc1)c1cccs1 [Example 188] | – |
| 0.248 | 3 | O=S(=O)(c1ccccc1)c1ccc(Nc2cc(N[C@H]3CC[C@H](O)CC3)nc3c(Br)cnn23)cc1 [Example 182] | – |
| 0.098 | 3.36 | CN(C)S(=O)(=O)c1ccc(Nc2cc(N[C@H]3CC[C@H](N)CC3)nc3ccnn23)cc1 [Example 169] | – |
| 0.046 | – | N[C@H]1CC[C@H](Nc2cc(Nc3ccc(Oc4ccc(F)cc4)cc3)n3ncc(Cl)c3n2)CC1 [Example 190] | – |
| 24 | 4.54 | CC1(C)CC(Nc2cc(Nc3ccc(S(=O)(=O)N4CCCC4)cc3)n3ncc(Br)c3n2)CC(C)(C)N1 [Example 179] | – |
| 0.028 | – | N[C@H]1CC[C@H](Nc2cc(Nc3ccc(Oc4cccnc4)cc3)n3ncc(Cl)c3n2)CC1 [Example 189] | – |
| 0.183 | 3.25 | O=S(=O)(c1ccc(Nc2cc(N[C@H]3CC[C@H](O)CC3)nc3c(Br)cnn23)cc1)N1CCCC1 [Example 176] | – |
| 22.2 | 12.9 | CCc1cnn2c(Nc3ccc(S(=O)(=O)N(C)C)cc3)cc(NC3CC(C)(C)NC(C)(C)C3)nc12 [Example 175] | – |

The remaining lines, values behind:

| Compound | IC50 [1] [µM] | IC50 ([3]; read-out: PDK1 IC50) [µM] | other results |
| --- | --- | --- | --- |
| CC(C)c1cnn2c(Nc3ccc(S(=O)(=O)N(C)CCN(C)C)cc3)cc(Cl)nc12 [Example 68] | 0.052 | – | – |
| CC(C)c1cnn2c(Nc3ccc(S(C)(=O)=O)cc3)cc(N(C)CCO)nc12 [Example 59] | 0.768 | > 200 | IC50 ([2]; read-out: Chk1 IC50): > 200 µM |
| CCc1cnn2c(Nc3ccc(S(C)(=O)=O)cc3)cc(N(C)C)nc12 [Example 45] | 1.13 | > 200 | IC50 ([2]; read-out: Chk1 IC50): > 200 µM |
| CC(C)c1cnn2c(Nc3ccc(S(=O)(=O)N(C)C)cc3)cc(C(=O)N3CCC(N)CC3)nc12 [Example 123] | 1.34 | – | IC50 ([2]; read-out: Chk1 IC50): > 200 µM |
| CC(C)COc1cc(Nc2ccc(S(C)(=O)=O)cc2)n2ncc(C(C)C)c2n1 [Example 41] | 1.2 | > 200 | IC50 ([2]; read-out: Chk1 IC50): > 200 µM |
| CS(=O)(=O)c1ccc(Nc2ccnc3ccnn23)cc1 [Example 19] | 10.4 | > 200 | – |
| Clc1cc(NCc2ccncc2)n2ncc(Br)c2n1 [Example 161] | 0.23 | – | – |
| CCc1cnn2c(Nc3ccc(S(=O)(=O)Nc4nccs4)cc3)cc(Cl)nc12 [Example 151] | 0.11 | 38 | – |
| CNCCNC(=O)c1cc(Nc2ccc(S(=O)(=O)N(C)C)cc2)n2ncc(C(C)C)c2n1 [Example 155] | 0.142 | – | IC50 ([2]; read-out: Chk1 IC50): 53 µM |
| CC(C)c1cnn2c(Nc3ccc(S(=O)(=O)N(C)C)cc3)cc(N[C@H]3CCCC[C@H]3N)nc12 [Example 132] | 3.63 | 10.4 | – |
| CC(C)c1cnn2c(Nc3ccc(S(=O)(=O)N(C)C)cc3)cc(C(=O)N3CCC(N4CCCC4)CC3)nc12 [Example 130] | 12.2 | – | – |
| CC(C)c1cnn2c(Nc3ccc(S(=O)(=O)N(C)C)cc3)cc(N[C@H]3CC[C@@H](N)CC3)nc12 [Example 116] | – | 0.536 | IC50 ([2]; read-out: Chk1 IC50): 2.19 µM |
| CC(C)c1cnn2c(Nc3ccc(S(=O)(=O)N(C)C)cc3)cc(Cl)nc12 [Example 27] | 0.24 | – | – |
| CCc1cnn2c(Nc3ccc(S(=O)(=O)N4CCCC4)cc3)cc(Cl)nc12 [Example 142] | 0.066 | > 200 | – |
| CS(=O)(=O)c1ccc(Nc2cc(Cl)nc3ccnn23)cc1 [Example 15] | – | – | IC50 ([2]; Chk1 IC50(μM)): > 200 µM; IC50 ([3]; PDK1 IC50(μM)): > 200 µM |
| Clc1cccc(Nc2cc(Cl)nc3c(Br)cnn23)c1 [Example 160] | 0.108 | – | – |

| Compound | IC50 [1] [µM] | IC50 ([3]; read-out: PDK1 IC50) [µM] | other results |
| --- | --- | --- | --- |
| CNC(=O)C1CCN(C(=O)c2cc(Nc3ccc(S(=O)(=O)N(C)C)cc3)n3ncc(C(C)C)c3n2)CC1 [Example 133] | 5.17 | – | – |
| CS(=O)(=O)c1ccc(Nc2cc(Cl)nc3c(Br)cnn23)cc1 [Example 144] | 0.23 | > 50 | – |
| CC(C)c1cnn2c(Nc3ccc(S(=O)(=O)N(C)C)cc3)cc(N3CCC(N)C3)nc12 (stereo not drawn) [Example 129] | 1.97 | – | – |
| CC(C)c1cnn2c(Nc3ccc(S(N)(=O)=O)cc3)cc(N[C@H]3CC[C@H](N)CC3)nc12 [Example 134] | 0.026 | 4.43 | – |
| CC(C)c1cnn2c(Nc3ccc(S(=O)(=O)N(C)C)cc3)cc(CO)nc12 [Example 146] | 0.546 | – | – |
| CCc1cnn2c(Nc3ccc(C(=O)NCCN(CC)CC)cc3)cc(Cl)nc12 [Example 152] | 0.79 | – | IC50 ([2]; read-out: Chk1 IC50): 32 µM |
| CN1CCN(S(=O)(=O)c2ccc(Nc3cc(Cl)nc4c(Br)cnn34)cc2)CC1 [Example 139] | 0.176 | > 50 | – |
| CC(C)c1cnn2c(Nc3ccc(S(=O)(=O)N(C)C)cc3)cc(C(=O)N3CCC(CN)CC3)nc12 [Example 131] | 9.37 | – | – |
| N[C@H]1CC[C@H](Nc2cc(Nc3ccc(S(=O)(=O)c4ccccc4)cc3)n3ncc(Br)c3n2)CC1 [Example 137] | – | 1.06 | IC50 ([2]; read-out: Chk1 IC50): 0.717 µM |
| CC(C)c1cnn2c(NC3CCN(S(=O)(=O)C(C)C)CC3)cc(Cl)nc12 [Example 159] | 1.17 | – | – |
| CC(C)c1cnn2c(NC3CCN(C(=O)OC(C)(C)C)CC3)cc(Cl)nc12 [Example 153] | 3.44 | – | – |
| CN(C)S(=O)(=O)c1ccc(Nc2cc(O[C@H]3CC[C@H](N)CC3)nc3c(Br)cnn23)cc1 [Example 158] | 0.005 | – | – |
| O=S(=O)(c1ccccc1)c1ccc(Nc2cc(Cl)nc3c(Br)cnn23)cc1 [Example 136] | 0.204 | 16 | – |
| CC(C)c1cnn2c(Nc3ccc(S(=O)(=O)N(C)C)cc3)cc(N[C@H]3CC[C@H](N)CC3)nc12 [Example 30, 3-isopropyl-5-(trans-4-aminocyclohexylamino)-7-(4-(N,N-dimethylsulphonamido)phenylamino)pyrazolo[1,5-a]pyrimidine] | – | 19.9 | IC50 ([2]; read-out: Chk1 IC50): 5.51 µM |
| Brc1cccc(-c2cc(NCc3ccncc3)n3nccc3n2)c1 [Example 3] | – | 34.6 | IC50 ([2]; read-out: Chk1 IC50): 29.6 µM |
